Assay results reported in the NIST ThermoML archive (doi:10.1016/j.tca.2015.12.011).
± gives the expanded uncertainty stated by the source.

Test: excess molar enthalpy (molar enthalpy of mixing); xn = mol fraction of the nth substance listed
Conditions: 100 kPa, Liquid, Calvet calorimetry

With [Li] [lithium] + [Ga] the excess molar enthalpy (891 K, x1 = 0.7508) was -4.11 ± 0.191 kcal/mol, the excess molar enthalpy (993 K, x1 = 0.1014) was -1.39 ± 0.0956 kcal/mol and the excess molar enthalpy (993 K, x1 = 0.2531) was -3.23 ± 0.0956 kcal/mol. The excess molar enthalpy (1018 K, x1 = 0.7505) was -3.9 ± 0.143 kcal/mol, the excess molar enthalpy (1044 K, x1 = 0.4035) was -4.64 ± 0.0717 kcal/mol and the excess molar enthalpy (1044 K, x1 = 0.5023) was -5.04 ± 0.12 kcal/mol. For the same molecule, the excess molar enthalpy (1044 K, x1 = 0.6005) was -5.04 ± 0.167 kcal/mol.
